According to US12545639B2, “3-substituted phenylamidine compounds, preparation and use thereof” (PI INDUSTRIES LTD., priority 2019, dated 2026):

Columns and labels:
Rhizoctonia solani = Rhizoctonia solani (rice sheath blight/potato black scurf) in vitro test, radial growth on potato dextrose agar; type: cell-based; details: 168 h, 300 ppm in potato dextrose agar, 25° C., 60% relative humidity, seven days, read-out: control compared to the untreated check (radial growth)
Pyricularia oryzae = assay: microbe, parasite or virus in culture; type: cell-based; details: 168 h, read-out: control compared to the untreated check (radial growth)
Botrytis cinerea = Botrytis cinerea (gray mold) in vitro test, radial growth on potato dextrose agar; type: cell-based; details: 168 h, 300 ppm in potato dextrose agar, 22° C., 90% relative humidity, seven days, read-out: control compared to the untreated check (radial growth)
Alternaria solani = Alternaria solani (early blight of tomato/potato) in vitro test, radial growth on potato dextrose agar; type: cell-based; details: 168 h, 300 ppm in potato dextrose agar, 25° C., 60% relative humidity, seven days, read-out: control compared to the untreated check (radial growth)
Phakopsora pachyrhizi = Phakopsora pachyrhizi test in soybean, preventive, in vivo on plants; details: in Glycine max, read-out: Efficacy (% control), disease severity compared to the untreated check

CCN(C)C=Nc1cc(F)cc(Cc2cccc(C#N)c2)c1C [Compound 174, N′-(3-(3-cyanobenzyl)-5-fluoro-2-methylphenyl)-N-ethyl-N-methylformimidamide]
≥ 70%: inhibition of growth at 300 ppm (Rhizoctonia solani) | inhibition of growth at 300 ppm (Pyricularia oryzae) | inhibition of growth at 300 ppm (Botrytis cinerea) | inhibition of growth at 300 ppm (Alternaria solani)

CCN(C)C=Nc1cc(C#N)cc(Cc2ccc(F)cc2)c1C [Compound 310, N′-(5-cyano-3-(4-fluorobenzyl)-2-methylphenyl)-N-ethyl-N-methylformimidamide]
≥ 70%: inhibition of growth at 300 ppm (Pyricularia oryzae) | inhibition of growth at 300 ppm (Botrytis cinerea) | inhibition of growth at 300 ppm (Alternaria solani)

CCN(C)C=Nc1cc(F)cc(N(C)c2cccc(Cl)c2)c1C [Compound 33, N′-(3-((3-chlorophenyl)(methyl)amino)-5-fluoro-2-methylphenyl)-N-ethyl-N-methylformimidamide]
≥ 70%: inhibition of growth at 300 ppm (Pyricularia oryzae) | inhibition of growth at 300 ppm (Botrytis cinerea) | inhibition of growth at 300 ppm (Alternaria solani) | pest or weed control at 500 ppm (Phakopsora pachyrhizi)

CCN(C)C=Nc1cc(C)cc(Cc2cc(F)ccc2C)c1Cl [Compound 57, N′-(2-chloro-3-(5-fluoro-2-methylbenzyl)-5-methylphenyl)-N-ethyl-N-methylformimidamide]
≥ 70%: inhibition of growth at 300 ppm (Pyricularia oryzae) | inhibition of growth at 300 ppm (Botrytis cinerea) | inhibition of growth at 300 ppm (Alternaria solani) | pest or weed control at 500 ppm (Phakopsora pachyrhizi)

CCN(C)C=Nc1cc(Cl)cc(Cc2cccc(C(F)(F)F)c2)c1C [Compound 127, N′-(5-chloro-2-methyl-3-(3-(trifluoromethyl)benzyl)phenyl)-N-ethyl-N-methylformimidamide]
≥ 70%: inhibition of growth at 300 ppm (Rhizoctonia solani) | inhibition of growth at 300 ppm (Pyricularia oryzae) | inhibition of growth at 300 ppm (Alternaria solani) | pest or weed control at 500 ppm (Phakopsora pachyrhizi)

CCN(C)C=Nc1cc(OC)cc(Cc2ccccc2)c1C [Compound 298, N′-(3-benzyl-5-methoxy-2-methylphenyl)-N-ethyl-N-methylformimidamide]
≥ 70%: inhibition of growth at 300 ppm (Rhizoctonia solani) | inhibition of growth at 300 ppm (Pyricularia oryzae) | inhibition of growth at 300 ppm (Alternaria solani) | pest or weed control at 500 ppm (Phakopsora pachyrhizi)

CCN(C)C=Nc1cc(F)cc(Cc2ccc(F)c(C(F)(F)F)c2)c1C [Compound 234, N-ethyl-N′-(5-fluoro-3-(4-fluoro-3-(trifluoromethyl)benzyl)-2-methylphenyl)-N-methylformimidamide]
≥ 70%: inhibition of growth at 300 ppm (Rhizoctonia solani) | inhibition of growth at 300 ppm (Pyricularia oryzae) | inhibition of growth at 300 ppm (Alternaria solani) | pest or weed control at 500 ppm (Phakopsora pachyrhizi)

CCN(C)C=Nc1cc(F)cc(Nc2cccc(C)c2F)c1C [Compound 122, N-ethyl-N′-(5-fluoro-3-((2-fluoro-3-methylphenyl)amino)-2-methylphenyl)-N-methylformimidamide]
≥ 70%: inhibition of growth at 300 ppm (Pyricularia oryzae) | inhibition of growth at 300 ppm (Botrytis cinerea) | pest or weed control at 500 ppm (Phakopsora pachyrhizi)

CCN(C)C=Nc1cc(C)cc(Cc2cccc(OC)c2)c1Cl [Compound 28, N′-(2-chloro-3-(3-methoxybenzyl)-5-methylphenyl)-N-ethyl-N-methylformimidamide]
≥ 70%: inhibition of growth at 300 ppm (Rhizoctonia solani) | inhibition of growth at 300 ppm (Pyricularia oryzae) | inhibition of growth at 300 ppm (Alternaria solani) | pest or weed control at 500 ppm (Phakopsora pachyrhizi)

CCN(C)C=Nc1cc(Cl)cc(Cc2ccccc2C#N)c1C [Compound 104, N′-(5-chloro-3-(2-cyanobenzyl)-2-methylphenyl)-N-ethyl-N-methylformimidamide]
≥ 70%: inhibition of growth at 300 ppm (Rhizoctonia solani) | inhibition of growth at 300 ppm (Pyricularia oryzae) | inhibition of growth at 300 ppm (Alternaria solani) | pest or weed control at 500 ppm (Phakopsora pachyrhizi)

CCN(C)C=Nc1cc(Cl)cc(Nc2ccc3ncsc3c2)c1C [Compound 242, N′-(3-(benzo[d]thiazol-6-ylamino)-5-chloro-2-methylphenyl)-N-ethyl-N-methylformimidamide]
≥ 70%: inhibition of growth at 300 ppm (Rhizoctonia solani) | inhibition of growth at 300 ppm (Pyricularia oryzae) | inhibition of growth at 300 ppm (Alternaria solani) | pest or weed control at 500 ppm (Phakopsora pachyrhizi)

CCN(C)C=Nc1cc(C)cc(Cc2ccc(F)c(C(F)(F)F)c2)c1Cl [Compound 218, N′-(2-chloro-3-(4-fluoro-3-(trifluoromethyl)benzyl)-5-methylphenyl)-N-ethyl-N-methylformimidamide]
≥ 70%: inhibition of growth at 300 ppm (Rhizoctonia solani) | inhibition of growth at 300 ppm (Pyricularia oryzae) | inhibition of growth at 300 ppm (Alternaria solani) | pest or weed control at 500 ppm (Phakopsora pachyrhizi)

CCN(C)C=Nc1cc(F)cc(Cc2ccc(Br)cc2)c1C [Compound 175, N′-(3-(4-bromobenzyl)-5-fluoro-2-methylphenyl)-N-ethyl-N-methylformimidamide]
≥ 70%: inhibition of growth at 300 ppm (Rhizoctonia solani) | inhibition of growth at 300 ppm (Pyricularia oryzae) | inhibition of growth at 300 ppm (Botrytis cinerea) | inhibition of growth at 300 ppm (Alternaria solani)

CCN(C)C=Nc1cc(F)cc(Nc2ccccc2)c1C [Compound 8, N-ethyl-N′-(5-fluoro-2-methyl-3-(phenylamino)phenyl)-N-methylformimidamide]
≥ 70%: inhibition of growth at 300 ppm (Pyricularia oryzae) | inhibition of growth at 300 ppm (Botrytis cinerea) | inhibition of growth at 300 ppm (Alternaria solani)

CCN(C)C=Nc1cc(C)cc(N(C)c2ccc(F)c(OC)c2)c1Cl [Compound 288, N′-(2-chloro-3-((4-fluoro-3-methoxyphenyl)(methyl)amino)-5-methylphenyl)-N-ethyl-N-methylformimidamide]
≥ 70%: inhibition of growth at 300 ppm (Pyricularia oryzae) | inhibition of growth at 300 ppm (Botrytis cinerea) | inhibition of growth at 300 ppm (Alternaria solani)

CCN(C)C=Nc1cc(C)cc(N(C)c2cc(Cl)ccc2C)c1Cl [Compound 110, N′-(2-chloro-3-((5-chloro-2-methylphenyl)(methyl)amino)-5-methylphenyl)-N-ethyl-N-methylformimidamide]
≥ 70%: inhibition of growth at 300 ppm (Botrytis cinerea) | inhibition of growth at 300 ppm (Alternaria solani)

CCN(C)C=Nc1cc(F)cc(N(C)c2cc(F)cc(Cl)c2)c1C [Compound 106, N′-(3-((3-chloro-5-fluorophenyl)(methyl)amino)-5-fluoro-2-methylphenyl)-N-ethyl-N-methylformimidamide]
≥ 70%: inhibition of growth at 300 ppm (Botrytis cinerea) | inhibition of growth at 300 ppm (Alternaria solani)

CCN(C)C=Nc1cc(F)cc(Cc2cccc(OC(F)(F)F)c2)c1C [Compound 173, N-ethyl-N′-(5-fluoro-2-methyl-3-(3-(trifluoromethoxy)benzyl)phenyl)-N-methylformimidamide]
≥ 70%: inhibition of growth at 300 ppm (Rhizoctonia solani) | inhibition of growth at 300 ppm (Pyricularia oryzae) | inhibition of growth at 300 ppm (Botrytis cinerea) | inhibition of growth at 300 ppm (Alternaria solani)

CCN(C)C=Nc1cc(Cl)cc(Cc2ccccc2OC(F)(F)F)c1C [Compound 247, N′-(5-chloro-2-methyl-3-(2-(trifluoromethoxy)benzyl)phenyl)-N-ethyl-N-methylformimidamide]
≥ 70%: inhibition of growth at 300 ppm (Rhizoctonia solani) | inhibition of growth at 300 ppm (Pyricularia oryzae) | inhibition of growth at 300 ppm (Botrytis cinerea) | inhibition of growth at 300 ppm (Alternaria solani)

CCN(C)C=Nc1cc(C#N)cc(Cc2ccc(Cl)cc2)c1C [Compound 311, N′-(3-(4-chlorobenzyl)-5-cyano-2-methylphenyl)-N-ethyl-N-methylformimidamide]
≥ 70%: inhibition of growth at 300 ppm (Rhizoctonia solani) | inhibition of growth at 300 ppm (Pyricularia oryzae) | inhibition of growth at 300 ppm (Botrytis cinerea)

CCN(C)C=Nc1cc(C)cc(N(C)c2ccc(F)c(F)c2)c1Cl [Compound 81, N′-(2-chloro-3-((3,4-difluorophenyl)(methyl)amino)-5-methylphenyl)-N-ethyl-N-methylformimidamide]
≥ 70%: inhibition of growth at 300 ppm (Botrytis cinerea) | inhibition of growth at 300 ppm (Alternaria solani) | pest or weed control at 500 ppm (Phakopsora pachyrhizi)

CCN(C)C=Nc1cc(F)cc(Cc2ccccc2OC(F)(F)F)c1C [Compound 170, N-ethyl-N′-(5-fluoro-2-methyl-3-(2-(trifluoromethoxy)benzyl)phenyl)-N-methylformimidamide]
≥ 70%: inhibition of growth at 300 ppm (Rhizoctonia solani) | inhibition of growth at 300 ppm (Pyricularia oryzae) | inhibition of growth at 300 ppm (Botrytis cinerea) | inhibition of growth at 300 ppm (Alternaria solani)

CCc1cccc(N(C)c2cc(F)cc(N=CN(C)CC)c2C)n1 [Compound 239, N-ethyl-N′-(3-((6-ethylpyridin-2-yl)(methyl)amino)-5-fluoro-2-methylphenyl)-N-methylformimidamide]
≥ 70%: inhibition of growth at 300 ppm (Rhizoctonia solani) | inhibition of growth at 300 ppm (Alternaria solani) | pest or weed control at 500 ppm (Phakopsora pachyrhizi)

CCN(C)C=Nc1cc(F)cc(N(C)c2ccc(F)c(F)c2)c1C [Compound 83, N′-(3-((3,4-difluorophenyl)(methyl)amino)-5-fluoro-2-methylphenyl)-N-ethyl-N-methylformimidamide]
≥ 70%: inhibition of growth at 300 ppm (Rhizoctonia solani) | inhibition of growth at 300 ppm (Pyricularia oryzae) | inhibition of growth at 300 ppm (Botrytis cinerea) | inhibition of growth at 300 ppm (Alternaria solani)

CCN(C)C=Nc1cc(C)cc(N(C)c2ccc(F)cc2)c1Cl [Compound 69, N′-(2-chloro-3-((4-fluorophenyl)(methyl)amino)-5-methylphenyl)-N-ethyl-N-methylformimidamide]
≥ 70%: inhibition of growth at 300 ppm (Rhizoctonia solani) | inhibition of growth at 300 ppm (Pyricularia oryzae) | inhibition of growth at 300 ppm (Alternaria solani) | pest or weed control at 500 ppm (Phakopsora pachyrhizi)

CCc1cccc(N(C)c2cc(Cl)cc(N=CN(C)CC)c2C)n1 [Compound 253, N′-(5-chloro-3-((6-ethylpyridin-2-yl)(methyl)amino)-2-methylphenyl)-N-ethyl-N-methylformimidamide]
≥ 70%: inhibition of growth at 300 ppm (Rhizoctonia solani) | inhibition of growth at 300 ppm (Pyricularia oryzae) | inhibition of growth at 300 ppm (Alternaria solani) | pest or weed control at 500 ppm (Phakopsora pachyrhizi)

CCN(C)C=Nc1cc(F)cc(Cc2ccc(OC(F)(F)F)cc2)c1C [Compound 176, N-ethyl-N′-(5-fluoro-2-methyl-3-(4-(trifluoromethoxy)benzyl)phenyl)-N-methylformimidamide]
≥ 70%: inhibition of growth at 300 ppm (Rhizoctonia solani) | inhibition of growth at 300 ppm (Pyricularia oryzae) | inhibition of growth at 300 ppm (Botrytis cinerea) | inhibition of growth at 300 ppm (Alternaria solani)

CCN(C)C=Nc1cc(C)cc(N(C)c2cccc(C(C)C)c2)c1Cl [Compound 63, N′-(2-chloro-3-((3-isopropylphenyl)(methyl)amino)-5-methylphenyl)-N-ethyl-N-methylformimidamide]
≥ 70%: inhibition of growth at 300 ppm (Botrytis cinerea) | inhibition of growth at 300 ppm (Alternaria solani)
